ChEMBL document CHEMBL4011587, “Design, synthesis and evaluation of novel ferulic acid-O-alkylamine derivatives as potential multifunctional agents for the treatment of Alzheimer's disease” (Eur J Med Chem, 2017)
Active and inactive are the calls of the source. The rule behind the calls is not given here.

Columns and labels:
Acetylcholinesterase [1] = biological target: T1, Acetylcholinesterase (Rattus norvegicus, UniProt P37136); assay: Inhibition of AChE in rat cortex homogenates using acetylthiocholine chloride as substrate measured after 15 mins by Ellman's method; type: ADME
T1 sequence (P37136 whole entry): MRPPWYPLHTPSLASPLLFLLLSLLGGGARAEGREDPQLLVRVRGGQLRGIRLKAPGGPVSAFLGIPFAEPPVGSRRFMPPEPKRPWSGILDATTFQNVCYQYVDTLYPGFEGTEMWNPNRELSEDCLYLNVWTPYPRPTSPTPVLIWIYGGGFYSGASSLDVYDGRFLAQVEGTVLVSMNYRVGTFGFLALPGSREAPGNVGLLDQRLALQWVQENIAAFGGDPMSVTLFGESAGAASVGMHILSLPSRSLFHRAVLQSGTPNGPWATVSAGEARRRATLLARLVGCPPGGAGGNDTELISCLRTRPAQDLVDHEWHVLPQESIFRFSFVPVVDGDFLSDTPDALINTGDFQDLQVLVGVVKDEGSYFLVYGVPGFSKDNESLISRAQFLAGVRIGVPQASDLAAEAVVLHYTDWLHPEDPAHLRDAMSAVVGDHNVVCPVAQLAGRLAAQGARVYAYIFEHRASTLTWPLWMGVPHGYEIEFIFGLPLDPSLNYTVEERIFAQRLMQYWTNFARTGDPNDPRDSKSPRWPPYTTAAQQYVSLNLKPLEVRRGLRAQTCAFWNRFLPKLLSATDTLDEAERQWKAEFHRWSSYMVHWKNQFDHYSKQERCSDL

Acetylcholinesterase [2] = biological target: T2, Acetylcholinesterase (Electrophorus electricus, UniProt O42275); assay: Inhibition of electric eel AChE using acetylthiocholine chloride as substrate measured after 15 mins by Ellman's method; type: ADME
[3] = Antioxidant activity assessed as inhibition of AAPH-induced peroxyl radical generation measured as trolox equivalent at 1 to 10 uM preincubated for 15 mins followed by AAPH addition measured every minute for 90 mins by ORAC-FL assay; type: functional
Cholinesterase [4] = biological target: Cholinesterase (Equus caballus, UniProt P81908); assay: Inhibition of equine serum BuChE using butyrylthiocholine chloride as substrate measured after 15 mins by Ellman's method
[5] = Inhibition of BuChE in rat serum using butyrylthiocholine chloride as substrate measured after 15 mins by Ellman's method; conditions: 0.25 h
[6] = biological target: Amyloid-beta precursor protein (Homo sapiens) (UniProt P05067); assay: Inhibition of amyloid beta (1 to 42) (unknown origin) self-aggregation at 25 uM after 24 hrs by thioflavin-T fluorescence assay relative to control
[7] = Selectivity index, ratio of IC50 for electric eel AChE to IC50 for equine serum BuChE
Acetylcholinesterase [8] = biological target: T2, Acetylcholinesterase; assay: Inhibition of electric eel AChE at 25 uM using acetylthiocholine chloride as substrate measured after 15 mins by Ellman's method relative to control; conditions: 0.25 h
Acetylcholinesterase [9] = biological target: T1, Acetylcholinesterase; assay: Inhibition of AChE in rat cortex homogenates at 25 umol/l using acetylthiocholine chloride as substrate measured after 15 mins by Ellman's method; conditions: 0.25 h
Mus musculus [10] = assay: Acute toxicity in Kunming mouse assessed as effect on fur sleekness up to 1000 mg/kg, po measured after 4 hrs up to 14 days; type: organism-based; conditions: in vivo
Mus musculus [11] = assay: Acute toxicity in Kunming mouse assessed as change in body weight up to 1000 mg/kg, po measured after 4 hrs up to 14 days; type: organism-based; conditions: in vivo
[12] = Permeability of the compound in PBS/EtOH at 100 ug/ml after 18 hrs by PAMPA-BBB assay
Mus musculus [13] = assay: Acute toxicity in Kunming mouse assessed as heart damage up to 1000 mg/kg, po measured after 14 days by macroscopic method; type: organism-based; conditions: in vivo, 336 h
PC-12 [14] = assay: Protection against H2O2-induced oxidative injury in rat PC12 cells assessed as increase in cell viability pretreated for 2 hrs followed by H2O2 challenge for 30 mins measured after 24 hrs by MTT assay; type: functional, cell-based
Mus musculus [15] = assay: Acute toxicity in Kunming mouse assessed as kidney damage up to 1000 mg/kg, po measured after 14 days by macroscopic method; type: organism-based; conditions: in vivo, 336 h
Mus musculus [16] = assay: Acute toxicity in Kunming mouse up to 1000 mg/kg, po measured after 4 hrs up to 14 days; type: organism-based; conditions: in vivo
[17] = biological target: Amyloid-beta precursor protein (Homo sapiens) (UniProt P05067); assay: Inhibition of amyloid beta (1 to 42) (unknown origin) self-aggregation after 24 hrs by thioflavin-T fluorescence assay
Mus musculus [18] = assay: Acute toxicity in Kunming mouse assessed as effect on food consumption up to 1000 mg/kg, po measured after 4 hrs up to 14 days; type: organism-based; conditions: in vivo
PC-12 [19] = assay: Cytotoxicity against rat PC12 cells assessed as cell viability up to 10 uM after 48 hrs by MTT assay; type: cell-based; conditions: pc-12, 48 h
[20] = Selectivity ratio of IC50 for AChE in human erythrocytes to IC50 for electric eel AChE; type: ADME, cell-based
[21] = biological target: Amyloid-beta precursor protein (Homo sapiens) (UniProt P05067); assay: Disaggregation of amyloid beta (1 to 42) (unknown origin) self aggregation at 25 uM after 24 hrs by thioflavin-T assay relative to control
[22] = Selectivity index, ratio of IC50 for AChE in human erythrocytes to IC50 for BuChE in human serum
Cholinesterase [23] = biological target: Cholinesterase (Homo sapiens, UniProt P06276); assay: Inhibition of BuChE in human serum using butyrylthiocholine chloride as substrate measured after 15 mins by Ellman's method
PC-12 [24] = assay: Protection against H2O2-induced oxidative injury in rat PC12 cells assessed as cell viability at 1 uM pretreated for 2 hrs followed by H2O2 challenge for 30 mins measured after 24 hrs by MTT assay (reference value: 50.7%); type: functional; conditions: read-out: Activity
Mus musculus [25] = assay: Reversal of scopolamine-induced memory deficit in Kunming mouse assessed as step down latency time at 21.3 mg/kg, po treated for 1 hr before training followed by scopolamine challenge 30 mins before training measured 24 hrs after training trial by passive avoidance test (reference value: 50.5 sec); type: functional
[26] = biological target: Amyloid-beta precursor protein (Homo sapiens) (UniProt P05067); assay: Inhibition of amyloid beta (1 to 42) (unknown origin) fibril formation at 25 uM after 24 hrs by transmission electron microscopic method
Mus musculus [27] = assay: Acute toxicity in Kunming mouse assessed as liver damage up to 1000 mg/kg, po measured after 14 days by macroscopic method; type: organism-based; conditions: in vivo, 336 h
[28] = biological target: Amyloid-beta precursor protein (Homo sapiens) (UniProt P05067); assay: Inhibition of amyloid beta (1 to 42) (unknown origin) self-aggregation at 12.5 uM after 24 hrs by thioflavin-T fluorescence assay relative to control
PC-12 [29] = assay: Protection against H2O2-induced oxidative injury in rat PC12 cells assessed as cell viability at 10 uM pretreated for 2 hrs followed by H2O2 challenge for 30 mins measured after 24 hrs by MTT assay (reference value: 50.7%); type: functional; conditions: read-out: Activity
Mus musculus [30] = assay: Acute toxicity in Kunming mouse assessed as effect on water consumption up to 1000 mg/kg, po measured after 4 hrs up to 14 days; type: organism-based; conditions: in vivo
Acetylcholinesterase [31] = biological target: Acetylcholinesterase (Homo sapiens, UniProt P22303); assay: Inhibition of AChE in human erythrocytes using acetylthiocholine chloride as substrate measured after 15 mins by Ellman's method; type: cell-based
[32] = biological target: Amyloid-beta precursor protein (Homo sapiens) (UniProt P05067); assay: Inhibition of amyloid beta (1 to 42) (unknown origin) self-aggregation at 50 uM after 24 hrs by thioflavin-T fluorescence assay relative to control
Mus musculus [33] = assay: Reversal of scopolamine-induced memory deficit in Kunming mouse assessed as increase in step down latency time administered orally treated for 1 hr before training followed by scopolamine challenge 30 mins before training measured 24 hrs after training trial by passive avoidance test; type: functional
[34] = biological target: Amyloid-beta precursor protein (Homo sapiens) (UniProt P05067); assay: Disaggregation of amyloid beta (1 to 42) (unknown origin) self aggregation at 25 uM after 24 hrs by transmission electron microscopic method
[35] = Cytotoxicity against rat PC12 cells assessed as cell viability at 100 uM after 48 hrs by MTT assay relative to control; type: cell-based, PC-12; conditions: read-out: Activity

Sequence of Amyloid-beta precursor protein (Homo sapiens) (P05067 whole entry): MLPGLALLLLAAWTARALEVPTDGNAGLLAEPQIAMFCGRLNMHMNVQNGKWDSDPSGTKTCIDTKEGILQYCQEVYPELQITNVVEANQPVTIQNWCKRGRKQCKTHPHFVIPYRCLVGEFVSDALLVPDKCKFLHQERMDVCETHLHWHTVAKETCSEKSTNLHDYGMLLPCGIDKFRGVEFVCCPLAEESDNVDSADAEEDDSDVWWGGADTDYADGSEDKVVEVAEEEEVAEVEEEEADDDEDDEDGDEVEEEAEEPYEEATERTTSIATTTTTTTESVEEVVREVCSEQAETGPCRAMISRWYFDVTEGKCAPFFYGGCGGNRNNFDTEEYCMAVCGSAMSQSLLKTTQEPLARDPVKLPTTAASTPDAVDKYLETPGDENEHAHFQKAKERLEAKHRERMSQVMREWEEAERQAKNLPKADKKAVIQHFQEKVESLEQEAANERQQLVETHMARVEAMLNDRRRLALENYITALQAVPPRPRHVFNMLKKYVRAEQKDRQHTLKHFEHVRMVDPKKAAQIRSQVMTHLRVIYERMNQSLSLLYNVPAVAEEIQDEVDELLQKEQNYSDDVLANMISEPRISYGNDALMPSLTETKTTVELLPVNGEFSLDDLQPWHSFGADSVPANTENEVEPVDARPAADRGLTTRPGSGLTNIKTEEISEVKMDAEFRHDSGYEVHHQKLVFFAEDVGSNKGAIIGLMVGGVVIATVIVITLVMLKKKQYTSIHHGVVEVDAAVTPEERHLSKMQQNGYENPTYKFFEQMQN
Sequence of Cholinesterase (Equus caballus, UniProt P81908) (P81908 whole entry): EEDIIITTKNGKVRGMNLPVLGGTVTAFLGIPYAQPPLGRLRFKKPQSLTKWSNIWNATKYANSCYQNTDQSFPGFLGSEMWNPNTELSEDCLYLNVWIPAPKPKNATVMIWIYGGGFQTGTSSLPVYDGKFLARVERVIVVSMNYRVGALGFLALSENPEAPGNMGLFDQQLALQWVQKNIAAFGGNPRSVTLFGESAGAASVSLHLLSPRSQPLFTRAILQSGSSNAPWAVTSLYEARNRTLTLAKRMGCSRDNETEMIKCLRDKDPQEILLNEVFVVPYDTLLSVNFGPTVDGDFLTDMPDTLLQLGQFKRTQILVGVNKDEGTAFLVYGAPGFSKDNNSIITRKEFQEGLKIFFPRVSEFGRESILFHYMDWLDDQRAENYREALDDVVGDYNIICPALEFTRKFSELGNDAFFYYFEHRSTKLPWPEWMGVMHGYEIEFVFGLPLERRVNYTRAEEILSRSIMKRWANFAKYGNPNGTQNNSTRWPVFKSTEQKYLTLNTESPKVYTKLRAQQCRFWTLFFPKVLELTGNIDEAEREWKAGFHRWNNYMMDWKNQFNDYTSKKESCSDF
T2 sequence (O42275 whole entry): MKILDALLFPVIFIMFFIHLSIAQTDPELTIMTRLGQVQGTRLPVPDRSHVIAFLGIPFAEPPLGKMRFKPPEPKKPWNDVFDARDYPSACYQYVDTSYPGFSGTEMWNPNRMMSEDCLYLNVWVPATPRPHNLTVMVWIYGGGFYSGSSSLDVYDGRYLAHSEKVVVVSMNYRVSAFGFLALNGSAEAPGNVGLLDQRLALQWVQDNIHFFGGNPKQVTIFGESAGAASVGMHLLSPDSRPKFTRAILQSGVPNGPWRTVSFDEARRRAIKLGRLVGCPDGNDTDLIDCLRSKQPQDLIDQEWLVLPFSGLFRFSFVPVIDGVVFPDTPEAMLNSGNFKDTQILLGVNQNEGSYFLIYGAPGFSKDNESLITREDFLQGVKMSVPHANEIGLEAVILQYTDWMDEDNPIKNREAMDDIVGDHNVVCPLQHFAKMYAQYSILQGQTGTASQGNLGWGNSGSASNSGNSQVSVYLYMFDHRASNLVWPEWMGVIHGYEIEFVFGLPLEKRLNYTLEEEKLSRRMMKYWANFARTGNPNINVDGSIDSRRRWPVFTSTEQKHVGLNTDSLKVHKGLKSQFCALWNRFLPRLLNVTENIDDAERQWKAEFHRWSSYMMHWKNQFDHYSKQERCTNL
Sequence of Cholinesterase (Homo sapiens, UniProt P06276) (P06276 whole entry): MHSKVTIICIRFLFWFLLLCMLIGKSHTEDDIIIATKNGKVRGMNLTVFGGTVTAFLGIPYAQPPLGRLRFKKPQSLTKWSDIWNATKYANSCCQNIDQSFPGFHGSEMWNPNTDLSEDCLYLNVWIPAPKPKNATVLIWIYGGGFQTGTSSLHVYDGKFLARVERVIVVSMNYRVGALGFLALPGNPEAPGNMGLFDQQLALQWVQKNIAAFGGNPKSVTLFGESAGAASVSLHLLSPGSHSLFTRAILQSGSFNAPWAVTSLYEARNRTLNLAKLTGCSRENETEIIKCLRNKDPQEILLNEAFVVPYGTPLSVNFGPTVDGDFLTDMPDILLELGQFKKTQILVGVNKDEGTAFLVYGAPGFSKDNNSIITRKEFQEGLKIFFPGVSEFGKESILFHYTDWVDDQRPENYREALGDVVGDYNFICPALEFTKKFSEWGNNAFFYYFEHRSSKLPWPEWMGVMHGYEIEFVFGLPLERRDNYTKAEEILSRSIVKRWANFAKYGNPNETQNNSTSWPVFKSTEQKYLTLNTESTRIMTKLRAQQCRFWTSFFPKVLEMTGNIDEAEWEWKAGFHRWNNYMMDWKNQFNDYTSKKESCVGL
Sequence of Acetylcholinesterase (Homo sapiens, UniProt P22303) (P22303 whole entry): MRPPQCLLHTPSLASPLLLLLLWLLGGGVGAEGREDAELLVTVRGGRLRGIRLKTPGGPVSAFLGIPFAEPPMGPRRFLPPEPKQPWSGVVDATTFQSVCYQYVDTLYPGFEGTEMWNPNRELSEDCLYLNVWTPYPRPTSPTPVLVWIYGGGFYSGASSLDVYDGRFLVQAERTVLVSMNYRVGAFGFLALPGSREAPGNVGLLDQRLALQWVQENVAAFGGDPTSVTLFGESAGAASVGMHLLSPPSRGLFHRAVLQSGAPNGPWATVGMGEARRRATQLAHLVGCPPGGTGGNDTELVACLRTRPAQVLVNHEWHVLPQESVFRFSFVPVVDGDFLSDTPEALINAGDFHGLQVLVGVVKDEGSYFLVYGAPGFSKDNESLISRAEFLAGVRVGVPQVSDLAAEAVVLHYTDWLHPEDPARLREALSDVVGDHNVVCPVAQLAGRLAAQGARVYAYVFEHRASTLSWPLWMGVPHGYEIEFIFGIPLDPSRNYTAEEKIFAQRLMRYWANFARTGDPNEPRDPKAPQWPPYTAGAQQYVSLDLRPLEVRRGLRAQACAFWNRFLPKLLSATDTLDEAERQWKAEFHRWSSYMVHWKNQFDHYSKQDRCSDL

Compound `COc1cc(/C=C/C(=O)N2CCC(Cc3ccccc3)CC2)ccc1OCCCCCN1CCN(c2ncccn2)CC1` has an IC50 (Acetylcholinesterase [1]) of 30.6 µM, an IC50 (Acetylcholinesterase [2]) of 5.81 µM and an Activity [3] of 0.46 equiv. It also gave an IC50 (Cholinesterase [4]) of 2.34 µM, an IC50 [5] of 45.3 µM and an inhibition [6] of 39.7%. The Ratio IC50 [7] was 2.5.

In the case of `COc1cc(/C=C/C(=O)O)ccc1O` [FERULATE], the Activity [3] is reported as 1.1 equiv and the inhibition at 25 µM (Acetylcholinesterase [8]) is reported as < 5%.

In the case of `COc1cc(/C=C/C(=O)N2CCC(Cc3ccccc3)CC2)ccc1OCCCCCCN1CCN(c2ncccn2)CC1`, the IC50 (Acetylcholinesterase [2]) is reported as 13.4 µM, the Activity [3] is reported as 0.51 equiv and the IC50 (Cholinesterase [4]) is reported as 0.68 µM. For the same compound, the inhibition at 25 µM (Acetylcholinesterase [9]) was 15.2%, the IC50 [5] was 68.6 µM and the inhibition [6] was 42%. The Ratio IC50 [7] was 19.7.

With `COc1cc(/C=C/C(=O)N2CCC(Cc3ccccc3)CC2)ccc1OCCCCN1CCc2ccccc2C1` the Activity (Mus musculus [10]) was “Non-Toxic”, the Activity (Mus musculus [11]) was “Non-Toxic” and the Papp at 18 h, 100 ug/ml [12] was 184 nm/s. For the same compound, the Activity (Mus musculus [13]) was “Non-Toxic”, the IC50 (Acetylcholinesterase [1]) was 1.8 µM and the IC50 (Acetylcholinesterase [2]) was 2.13 µM. The Activity (PC-12 [14]) was “Dose-dependent effect”, the Activity (Mus musculus [15]) was “Non-Toxic” and the Activity [3] was 0.55 equiv. The Activity (Mus musculus [16]) was “Non-Toxic”, the IC50 (Cholinesterase [4]) was 0.021 µM and the inhibition [17] was “Dose-dependent effect”. For the same compound, the IC50 [5] was 8.63 µM, the Activity (Mus musculus [18]) was “Non-Toxic” and the Activity (PC-12 [19]) was “Non-Toxic”. The Ratio IC50 [20] was 2 to 4, the Activity [21] was 38.7% and the “Ratio IC50” value [22] was 54.6. For the same compound, the IC50 (Cholinesterase [23]) was 0.07 µM, the viability at 1 µM (PC-12 [24]) was 58.6% and the Time (Mus musculus [25]) was 182.8 s. The inhibition [26] was “Active”, the Activity (Mus musculus [27]) was “Non-Toxic” and the inhibition [6] was 50.8%. For the same compound, the inhibition [28] was 31.2%, the viability at 10 µM (PC-12 [29]) was 76.7% and the Activity (Mus musculus [30]) was “Non-Toxic”. The IC50 (Acetylcholinesterase [31]) was 3.82 µM, the inhibition [32] was 68.7% and the Activity (Mus musculus [33]) was “Dose-dependent effect”. For the same compound, the Activity [34] was “Active”, the viability at 48 h, 100 µM [35] was 85.8% and the Ratio IC50 [7] was 101.

Compound `COc1cc(/C=C/C(=O)N2CCC(Cc3ccccc3)CC2)ccc1OCCCCCN1CCc2ccccc2C1` has an IC50 (Acetylcholinesterase [1]) of 3.21 µM, an IC50 (Acetylcholinesterase [2]) of 4.33 µM and an Activity [3] of 0.47 equiv. The IC50 (Cholinesterase [4]) was 0.31 µM, the IC50 [5] was 11.4 µM and the inhibition [6] was 50.7%. For the same compound, the Ratio IC50 [7] was 14.

With `COc1cc(/C=C/C(=O)N2CCC(Cc3ccccc3)CC2)ccc1OCCCN1CCN(Cc2ccccc2)CC1` the IC50 (Acetylcholinesterase [1]) was 65 µM, the IC50 (Acetylcholinesterase [2]) was 8.4 µM and the Activity [3] was 0.7 equiv. The IC50 (Cholinesterase [4]) was 1.22 µM, the IC50 [5] was 41.2 µM and the inhibition [6] was 50.3%. For the same compound, the Ratio IC50 [7] was 6.9.

`COc1cc(/C=C/C(=O)N2CCC(Cc3ccccc3)CC2)ccc1OCCCN1CCN(c2ccccn2)CC1` gave an IC50 (Acetylcholinesterase [1]) of 75.3 µM, an IC50 (Acetylcholinesterase [2]) of 10.4 µM and an Activity [3] of 0.47 equiv. For the same compound, the IC50 (Cholinesterase [4]) was 0.86 µM, the IC50 [5] was 62.1 µM and the inhibition [6] was 36.3%. The Ratio IC50 [7] was 12.1.

Work on `COc1cc2c(cc1OC)C(=O)C(CC1CCN(Cc3ccccc3)CC1)C2` (stereo not drawn) [DONEPEZIL] yielded an IC50 [5] of 4.42 µM.

Work on `COc1cc(/C=C/C(=O)N2CCC(Cc3ccccc3)CC2)ccc1OCCCCN1CCN(c2ncccn2)CC1` yielded an IC50 (Acetylcholinesterase [1]) of 44.3 µM, an IC50 (Acetylcholinesterase [2]) of 12.4 µM and an Activity [3] of 0.43 equiv. The IC50 (Cholinesterase [4]) was 1.56 µM, the IC50 [5] was 56.2 µM and the inhibition [6] was 46%. For the same compound, the Ratio IC50 [7] was 7.9.
